Test system: IL-1 alpha secretion by cocultures of fibroblasts and keratinocytes
Test: IL-1 alpha assay: ELISA of IL-1α secreted by fibroblast/keratinocyte cocultures exposed to a surfactant irritant with botanical added
Format: cell-based, human
Settings: hand dishwashing detergent; for Percent IL-1 α Reduction AVG: average of 1%, 0.1%, 0.01%
Description: IL-1 alpha is one cytokine often released near the beginning of the inflammation cascade, which ultimately leads to a human biological response resulting in visible and/or perceptual signs of irritation. Accordingly, by reducing the initial response to an irritant, such as a surfactant, the ultimate damaging reaction can be reduced, prevented, and/or eliminated.
The procedure for conducting IL-1 alpha assays is as follows: Cocultures of fibroblasts and keratinocytes, the primary cell types found in skin, are established using 100,000 fibroblasts and 200,000 keratinocytes per well. These types of cells are those found in the outer layers of the skin exposed to detergent during every day use. An irritant, for example the surfactant package used in a dish detergent (Example 1 below), is then applied to the coculture wells to initiate the production and secretion of pro-inflammatory cytokines by the cells. One such cytokine is human interleukin-1 alpha or IL-1α. In the body, this protein is a key mediator of the host response to infections and various inflammatory challenges. Once produced, IL-1α stimulates production of other pro-inflammatory cytokines and bioactive molecules. Together, these biological molecules send the message that something is wrong and the keratinocytes and fibroblasts need help. This is called the inflammatory response.
The amount of secreted IL-1α is directly related to the intensity of the inflammatory response. In vitro, the concentration of IL-1α secreted by the coculture cells in response to the irritant can be measured via a precise laboratory technique known as an Enzyme Linked Immuno-Sorbent Assay or ELISA. Thus, to test botanical materials for mildness, a lessening of IL-1α secretion, the mildness agents were added with the chemical irritant. When a reduction in IL-1α expression was observed, the mildness agents were successful. Theoretically, there are several mechanisms by which this could have been achieved at the cellular level. Without wishing to be bound to a particular theory or in any way limit the scope of the appended claims or their equivalents, it is presently believed that these mechanisms may include one or more of the following: the mildness agent could block the transcription of the DNA to RNA, translation of the RNA to protein, and/or release of the IL-1α from the cells. […] The mildness agent may also have stopped the cascade after the irritant works on the cell. Whatever the mechanism, the net result is the same. There is less IL-1α released by the cells which correlates to inhibition of events in the inflammatory cascade and ultimately, less inflammation.
These were prepared using a serial dilution technique: 1.0 g botanical was mixed well with 99.0 g dish detergent to give the 1.0% formulation; next, 10.0 g of the 1.0% solution was mixed well with 90.0 g of the dish detergent to give the 0.1% formulation; finally, 10.0 g of the 0.1% solution was mixed well with 90.0 g of the dish detergent to give the 0.01% formulation.

Row | Molecule | Percent IL-1 α Reduction AVG | Percent IL-1 α Reduction (botanical 0.01% by weight) | Percent IL-1 α Reduction (botanical 0.1% by weight) | Percent IL-1 α Reduction (botanical 1% by weight)
1 | CCCCCCCCCCCCCCCCCCOC(=O)[C@@]1(C)CC[C@]2(C)CC[C@]3(C)C(=CC(=O)[C@@H]4[C@@]5(C)CC[C@H](O)C(C)(C)[C@@H]5CC[C@]43C)[C@@H]2C1 [NET-STG, stearyl glycyrrhetinate] | 13.10% | 14.70% | 11.40% | 13.20%
2 | CC(C)=CCCC(C)=CCCC(C)=CCO [Farnesol] | 19.10% | 14.50% | 15.50% | 27.30%
3 | Vitamin B12 | 9.17% | 17.70% | −3.20% | 13.00%
4 | O=C1O[C@H]([C@@H](O)CO)C([O-])=C1OP(=O)([O-])[O-].O=C1O[C@H]([C@@H](O)CO)C([O-])=C1OP(=O)([O-])[O-].[Mg+2].[Mg+2].[Mg+2] [VC-PMG, Magnesium Ascorbyl Phosphate] | 21.93% | 29.70% | 23.80% | 12.30%
5 | O=C1O[C@H]([C@@H](O)CO)C(O)=C1O [Vitamin C] | 7.33% | 10.30% | 8.50% | 3.20%
6 | O=C(/C=C/c1ccc(O)c(O)c1)O[C@H](Cc1ccc(O)c(O)c1)C(=O)O [Rosmarinic Acid] | 28.80% | 34.5% | 31.8% | 20.1%
7 | O=C(O[C@@H]1Cc2c(O)cc(O)cc2O[C@@H]1c1cc(O)c(O)c(O)c1)c1cc(O)c(O)c(O)c1 [EGCG, epigallocatechin gallate] | 10.50% | 12.50% | 12.10% | 6.90%
8 | CC(C)=CCC[C@](C)(O)[C@@H]1CC=C(C)CC1 [Alpha bisabolol, (−)-α-bisabolol] | 6.67% | 19.00% | 2.00% | −1.00%
9 | Oc1cc(O)c2c(c1)O[C@H](c1ccc(O)c(O)c1)[C@H](O)C2 [Epicatechin] | 29.97% | 26.2% | 22.1% | 41.6%
10 | Dimethylsilanol Hyaluronate [AMINO DL-30] | 12.07% | 21.81% | 7.18% | 7.22%
11 | glutaurylamidoethyl indole [GLISTIN] | 22.63% | 18.50% | 31.80% | 17.60%
12 | CC(=O)Oc1c(C)c(C)c2c(c1C)CCC(C)(CCC[C@H](C)CCC[C@H](C)CCCC(C)C)O2 (stereo partly shown) [Vitamin E acetate] | 26.73% | 25.80% | 27.50% | 26.90%
13 | Dimethiconol Panthenol [D.S.H. C N] | 19.31% | 22.25% | 16.43% | 19.24%
14 | Ceramide | 7.73% | −0.60% | 14.70% | 9.10%
15 | Catechin | 17.43% | 19.50% | 24.90% | 7.90%
16 | O=P(O)(O)O[C@H]1[C@H](OP(=O)(O)O)[C@@H](OP(=O)(O)O)[C@H](OP(=O)(O)O)[C@@H](OP(=O)(O)O)[C@H]1OP(=O)(O)O [PHYTIC ACID EXTREME, phytic acid] | 14.16% | 15.01% | 12.56% | 14.91%

Reference: patent US20070224154A1, “Methods of reducing skin irritation” (ACCESS BUSINESS GROUP INTERNATIONAL, LLC, priority 2006, published 2007)
